These results are taken from patent US9505768B2, “Compositions and methods for modulating TLR4” (The Regents of the University of California, priority 2012, dated 2016).

Structures are written as SMILES.

Holding throughout (assay type): cell-based
In one assay the target is T1, human TLR4 (Homo sapiens, UniProt O00206+Q9Y6Y9).
T1 construct: host or cells: HEK293 (HEK Blue) cells with NFκB/SEAP reporter
Nature of the assay: Human TLR4 HEK Blue NFκB/SEAP reporter assay. The note with it: hTLR4 HEK293 transfectoma; all compounds tested at 10 μM; Cmpd 1 set at 100. The method, then: (§1) The above assays were utilized to compare the derivatives of the lead pyrimidoindole for their ability to activate mouse and human TLR4. […] Each cytokine induction curve was first converted to a percent activity curve, and then the AUC of the percent activity curve was calculated. The process of converting to a percent activity curve allowed subtracting background and adjusting for plate-to-plate variation.
(§2) The culture supernatants were harvested after a 20-24 h incubation period. SEAP activity in the supernatants was determined by a colorimetric assay, using either the SEAPorter Assay Kit (Imgenex), with absorbance read at 405 nm, or QuantiBlue (Invivogen), with absorbance read at 630 nm.

For a further assay, the target named is T2, mouse TLR4 (Mus musculus, UniProt Q9JHF9+Q9QUK6).
T2 construct: host or cells: HEK293 (HEK Blue) cells with NFκB/SEAP reporter
T2 sequence (Q9QUK6 26-835): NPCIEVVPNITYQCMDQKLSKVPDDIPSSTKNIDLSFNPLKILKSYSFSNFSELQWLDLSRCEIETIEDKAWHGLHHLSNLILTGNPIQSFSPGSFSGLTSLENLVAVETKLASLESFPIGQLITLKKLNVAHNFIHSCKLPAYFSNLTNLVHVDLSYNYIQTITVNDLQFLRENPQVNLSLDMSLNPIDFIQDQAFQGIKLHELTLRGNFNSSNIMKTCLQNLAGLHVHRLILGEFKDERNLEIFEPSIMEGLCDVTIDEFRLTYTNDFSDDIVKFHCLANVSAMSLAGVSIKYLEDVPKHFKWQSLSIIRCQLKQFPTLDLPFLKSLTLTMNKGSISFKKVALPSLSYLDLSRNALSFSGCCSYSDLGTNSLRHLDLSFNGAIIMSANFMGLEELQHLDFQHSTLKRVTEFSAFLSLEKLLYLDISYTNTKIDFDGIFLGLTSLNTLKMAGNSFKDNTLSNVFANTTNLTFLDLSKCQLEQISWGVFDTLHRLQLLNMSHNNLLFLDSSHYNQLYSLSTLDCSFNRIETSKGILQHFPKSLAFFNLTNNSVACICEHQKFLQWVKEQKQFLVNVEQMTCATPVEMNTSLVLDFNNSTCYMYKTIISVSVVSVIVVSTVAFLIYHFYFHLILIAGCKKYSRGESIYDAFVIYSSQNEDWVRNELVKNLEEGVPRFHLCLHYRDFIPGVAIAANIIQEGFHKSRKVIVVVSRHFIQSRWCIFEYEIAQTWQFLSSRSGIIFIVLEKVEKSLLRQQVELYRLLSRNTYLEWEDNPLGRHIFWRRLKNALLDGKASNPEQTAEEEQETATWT
T2 sequence (Q9JHF9 19-160): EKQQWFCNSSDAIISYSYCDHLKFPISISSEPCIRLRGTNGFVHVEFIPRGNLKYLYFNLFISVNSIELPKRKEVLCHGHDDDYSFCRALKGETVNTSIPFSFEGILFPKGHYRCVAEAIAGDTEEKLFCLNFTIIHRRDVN
Nature of the assay: Murine TLR4 HEK Blue NFκB/SEAP reporter assay. To be noted: mTLR4 HEK transfectoma, 312 nM to 10 μM; Cmpd 1 set at 100. The method, then: as §1, §2
For orientation: In a reporter assay the amount or activity of a reporter protein is the signal.

For assay [1], the system named is mouse bone marrow derived dendritic cells (mBMDC). Description: IL-6 induction in mouse bone marrow derived dendritic cells (ELISA). To be noted: relative to Cmpd 1 / within series. Here is the method:
as §1
BMDC were prepared from C57BL/6 mice as described. See e.g., Wu, C. […] BMDC (10^5 cells per well) were plated in 96-well plates in 200 μL of complete RPMI1640 supplemented with 10% fetal calf serum (FCS; Sigma Aldrich), 100 U/mL penicillin, and 100 μg/mL streptomycin (Invitrogen). […] After 18 h incubation, the cell culture supernatants were collected. LPS (purified LPS, Invivogen, San Diego, Calif.) or MPLA (1 μg/mL synthetic MPLA, Invivogen, San Diego, Calif.) were used as positive controls. […] The AUC was calculated from BMDC dose-response curves using Prism 5 (GraphPad, San Diego). Each cytokine induction curve was first converted to a percent activity curve, and then the AUC of the percent activity curve was calculated. The process of converting to a percent activity curve allowed subtracting background and adjusting for plate-to-plate variation.

T1 sequence (O00206 24-839): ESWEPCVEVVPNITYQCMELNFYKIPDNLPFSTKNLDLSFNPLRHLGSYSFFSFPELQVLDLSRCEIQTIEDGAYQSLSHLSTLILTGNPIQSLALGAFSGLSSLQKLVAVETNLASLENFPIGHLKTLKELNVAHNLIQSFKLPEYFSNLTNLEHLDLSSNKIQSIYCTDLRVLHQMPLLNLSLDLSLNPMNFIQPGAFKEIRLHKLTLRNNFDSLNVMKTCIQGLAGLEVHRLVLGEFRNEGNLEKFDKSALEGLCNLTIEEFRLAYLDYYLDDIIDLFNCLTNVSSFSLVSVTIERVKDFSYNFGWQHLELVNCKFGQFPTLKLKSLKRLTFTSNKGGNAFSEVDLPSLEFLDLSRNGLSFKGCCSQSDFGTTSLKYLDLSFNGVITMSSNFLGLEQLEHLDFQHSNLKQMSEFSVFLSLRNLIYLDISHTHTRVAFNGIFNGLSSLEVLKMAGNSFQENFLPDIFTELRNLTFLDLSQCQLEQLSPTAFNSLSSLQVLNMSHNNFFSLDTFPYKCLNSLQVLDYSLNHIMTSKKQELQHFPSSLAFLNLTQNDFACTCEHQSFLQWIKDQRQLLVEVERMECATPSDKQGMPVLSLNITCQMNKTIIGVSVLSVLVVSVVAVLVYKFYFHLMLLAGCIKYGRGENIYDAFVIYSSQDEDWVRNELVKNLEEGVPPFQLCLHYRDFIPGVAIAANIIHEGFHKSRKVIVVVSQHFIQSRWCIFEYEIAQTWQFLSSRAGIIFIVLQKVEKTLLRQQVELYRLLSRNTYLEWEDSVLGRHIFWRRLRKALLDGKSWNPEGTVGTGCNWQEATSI
T1 sequence (Q9Y6Y9 19-160): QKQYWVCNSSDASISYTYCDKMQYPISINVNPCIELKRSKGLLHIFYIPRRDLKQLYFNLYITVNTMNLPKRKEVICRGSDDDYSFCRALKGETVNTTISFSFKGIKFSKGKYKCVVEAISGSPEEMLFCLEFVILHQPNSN

Regarding `CC(C)CNC(=O)CSc1nc2c([nH]c3ccccc32)c(=O)n1-c1ccccc1` [Compound 26, N-isobutyl-2-((4-oxo-3-phenyl-4,5-dihydro-3H-pyrimido[5,4-b]indol-2-yl)thio)acetamide], on human TLR4, the “human TLR4, values normalized to Cmpd 1” value worked out at 21. Further, the “mouse TLR4, area under curve (AUC) values normalized to Cmpd 1” value at mouse TLR4 was 24. The “IL-6 activity in mBMDC (in words)” value in assay [1] was “somewhat less active”.

As to `CCCCCn1c2ccccc2c2nc(SCC(=O)NC3CCCCC3)n(-c3ccccc3)c(=O)c21` [Compound 49, N-cyclohexyl-2-((4-oxo-5-pentyl-3-phenyl-4,5-dihydro-3H-pyrimido[5,4-b]indol-2-yl)thio)acetamide], at human TLR4, the “human TLR4, values normalized to Cmpd 1” value is recorded as 11. For the same compound, the “mouse TLR4, area under curve (AUC) values normalized to Cmpd 1” value on mouse TLR4 came out at 6.

Consider `CCCCCCNC(=O)CSc1nc2c([nH]c3ccccc32)c(=O)n1-c1ccccc1` [Compound 25, N-hexyl-2-((4-oxo-3-phenyl-4,5-dihydro-3H-pyrimido[5,4-b]indol-2-yl)thio)acetamide], for which, at human TLR4, the “human TLR4, values normalized to Cmpd 1” value worked out at 8. Further, the “mouse TLR4, area under curve (AUC) values normalized to Cmpd 1” value at mouse TLR4 turned out to be 4.

As for `O=C(CSc1nc2c([nH]c3ccccc32)c(=O)n1-c1ccccc1)NC1CCCC1` [Compound 11, N-cyclopentyl-2-((4-oxo-3-phenyl-4,5-dihydro-3H-pyrimido[5,4-b]indol-2-yl)thio)acetamide], the “human TLR4, values normalized to Cmpd 1” value on human TLR4 was determined as 23. Moreover, the “mouse TLR4, area under curve (AUC) values normalized to Cmpd 1” value on mouse TLR4 stood at 28.

For `NC(=O)Cn1c2ccccc2c2nc(SCC(=O)NC3CCCCC3)n(-c3ccccc3)c(=O)c21` [Compound 52, 2-((5-(2-amino-2-oxoethyl)-4-oxo-3-phenyl-4,5-dihydro-3H-pyrimido[5,4-b]indol-2-yl)thio)-N-cyclohexylacetamide], the “human TLR4, values normalized to Cmpd 1” value on human TLR4 came out at 11. At mouse TLR4, the “mouse TLR4, area under curve (AUC) values normalized to Cmpd 1” value is 8.

For `O=C(CSc1nc2c([nH]c3ccccc32)c(=O)n1-c1ccccc1)Nc1ccc2cn[nH]c2c1` [Compound 20, N-(1H-indazol-6-yl)-2-((4-oxo-3-phenyl-4,5-dihydro-3H-pyrimido[5,4-b]indol-2-yl)thio)acetamide], at human TLR4, the “human TLR4, values normalized to Cmpd 1” value is listed as less than 1. Also, the “mouse TLR4, area under curve (AUC) values normalized to Cmpd 1” value at mouse TLR4 was less than 1.

Regarding `CC(C)CCNC(=O)CSc1nc2c([nH]c3ccccc32)c(=O)n1-c1ccccc1` [Compound 27, N-isopentyl-2-((4-oxo-3-phenyl-4,5-dihydro-3H-pyrimido[5,4-b]indol-2-yl)thio)acetamide], the “human TLR4, values normalized to Cmpd 1” value at human TLR4 turned out to be 38. Besides, the “mouse TLR4, area under curve (AUC) values normalized to Cmpd 1” value on mouse TLR4 was found to be 56. Also, in assay [1], the “IL-6 activity in mBMDC (in words)” value was “somewhat less active”.

Take `CN(C(=O)CSc1nc2c3ccccc3n(C)c2c(=O)n1-c1ccccc1)C1CCCCC1` [Compound 43, N-cyclohexyl-N-methyl-2-((5-methyl-4-oxo-3-phenyl-4,5-dihydro-3H-pyrimido[5,4-b]indol-2-yl)thio)acetamide]: the “human TLR4, values normalized to Cmpd 1” value at human TLR4 is on record as less than 1. Moreover, on mouse TLR4, the “mouse TLR4, area under curve (AUC) values normalized to Cmpd 1” value was 1. Also, the “IL-6 activity in mBMDC (in words)” value in assay [1] is recorded as “total loss of IL-6 activity”.

For the compound `O=C(CSc1nc2c([nH]c3ccccc32)c(=O)n1-c1ccccc1)NC1CCNCC1` [Compound 34, 2-((4-oxo-3-phenyl-4,5-dihydro-3H-pyrimido[5,4-b]indol-2-yl)thio)-N-(piperidin-4-yl)acetamide], on human TLR4, the “human TLR4, values normalized to Cmpd 1” value is listed as less than 1. Moreover, at mouse TLR4, the “mouse TLR4, area under curve (AUC) values normalized to Cmpd 1” value is listed as less than 1.

Regarding `O=C(CSc1nc2c([nH]c3ccccc32)c(=O)n1-c1ccccc1)Nc1nccs1` [Compound 21, 2-((4-oxo-3-phenyl-4,5-dihydro-3H-pyrimido[5,4-b]indol-2-yl)thio)-N-(thiazol-2-yl)acetamide], at human TLR4, the “human TLR4, values normalized to Cmpd 1” value was 12. The “mouse TLR4, area under curve (AUC) values normalized to Cmpd 1” value on mouse TLR4 worked out at 2.

Turning to `CCC(CC)NC(=O)CSc1nc2c([nH]c3ccccc32)c(=O)n1-c1ccccc1` [Compound 31, 2-((4-oxo-3-phenyl-4,5-dihydro-3H-pyrimido[5,4-b]indol-2-yl)thio)-N-(pentan-3-yl)acetamide], the “human TLR4, values normalized to Cmpd 1” value on human TLR4 was found to be 11. For the same compound, at mouse TLR4, the “mouse TLR4, area under curve (AUC) values normalized to Cmpd 1” value turned out to be 8.

For the compound `O=C(CSc1nc2c([nH]c3ccccc32)c(=O)n1-c1ccccc1)Nc1ccc2ccccc2c1` [Compound 18, N-(naphthalen-2-yl)-2-((4-oxo-3-phenyl-4,5-dihydro-3H-pyrimido[5,4-b]indol-2-yl)thio)acetamide], the “human TLR4, values normalized to Cmpd 1” value on human TLR4 is recorded as 21. Also, the “mouse TLR4, area under curve (AUC) values normalized to Cmpd 1” value on mouse TLR4 was determined as 2.

With `CCNC(=O)CSc1nc2c([nH]c3ccccc32)c(=O)n1-c1ccccc1` [Compound 22, N-ethyl-2-((4-oxo-3-phenyl-4,5-dihydro-3H-pyrimido[5,4-b]indol-2-yl)thio)acetamide], on human TLR4, the “human TLR4, values normalized to Cmpd 1” value came out at 8. In addition, on mouse TLR4, the “mouse TLR4, area under curve (AUC) values normalized to Cmpd 1” value was less than 1.

`CCCCCCCC/C=C\CCCCCCCC(=O)OCC(COP(=O)(O)OCCNC(=O)CSc1nc2c([nH]c3ccccc32)c(=O)n1-c1ccccc1)OC(=O)CCCCCCC/C=C\CCCCCCCC` (stereo not drawn) [Compound 35, (Z)-3-((hydroxy(2-(2-((4-oxo-3-phenyl-4,5-dihydro-3H-pyrimido[5,4-b]indol-2-yl)thio)acetamido)ethoxy)phosphoryl)oxy)propane-1,2-diyl dioleate]: the “human TLR4, values normalized to Cmpd 1” value at human TLR4 is recorded as less than 1. Further, the “mouse TLR4, area under curve (AUC) values normalized to Cmpd 1” value on mouse TLR4 was less than 1.

Consider `CC(C)(C)NC(=O)CSc1nc2c([nH]c3ccccc32)c(=O)n1-c1ccccc1` [Compound 32, N-(tert-butyl)-2-((4-oxo-3-phenyl-4,5-dihydro-3H-pyrimido[5,4-b]indol-2-yl)thio)acetamide], for which, on human TLR4, the “human TLR4, values normalized to Cmpd 1” value stood at 6. Moreover, the “mouse TLR4, area under curve (AUC) values normalized to Cmpd 1” value on mouse TLR4 is on record as less than 1.

With `CCCCCCCCCCCCn1c2ccccc2c2nc(SCC(=O)NC3CCCCC3)n(-c3ccccc3)c(=O)c21` [Compound 50, N-cyclohexyl-2-((5-dodecyl-4-oxo-3-phenyl-4,5-dihydro-3H-pyrimido[5,4-b]indol-2-yl)thio)acetamide], on human TLR4, the “human TLR4, values normalized to Cmpd 1” value was determined as 10. Further, at mouse TLR4, the “mouse TLR4, area under curve (AUC) values normalized to Cmpd 1” value came out at 4.

On to `CCCCCNC(=O)CSc1nc2c([nH]c3ccccc32)c(=O)n1-c1ccccc1` [Compound 24, 2-((4-oxo-3-phenyl-4,5-dihydro-3H-pyrimido[5,4-b]indol-2-yl)thio)-N-pentylacetamide], for which, at human TLR4, the “human TLR4, values normalized to Cmpd 1” value amounted to 23. For the same compound, at mouse TLR4, the “mouse TLR4, area under curve (AUC) values normalized to Cmpd 1” value is on record as 42.

In the case of `O=C(CSc1nc2c([nH]c3ccccc32)c(=O)n1-c1ccccc1)NCc1ccco1` [Compound 19, N-(furan-2-ylmethyl)-2-((4-oxo-3-phenyl-4,5-dihydro-3H-pyrimido[5,4-b]indol-2-yl)thio)acetamide], the “human TLR4, values normalized to Cmpd 1” value at human TLR4 amounted to 27. Moreover, at mouse TLR4, the “mouse TLR4, area under curve (AUC) values normalized to Cmpd 1” value is 5.
